Data: US9545461B2, “Anti-microbial peptides and methods of use thereof” (priority 2011, dated 2017)
Square brackets hold non-standard residues; d marks the D form. Ends that are not written are not given here. pY = N[C@@H](Cc1ccc(OP(=O)(O)O)cc1)C(=O)O

What was measured:
[1] = system: Streptococcus pyogenes (ATCC 19615); type: cell-based; settings: 200 μg/mL, 3 h
Method: (§1) Telomerase-immortalized human corneal epithelial cells (TiHCE) were cultured as described (Robertson D M et al., 2005 Invest Ophthalmol Vis Sci. 46:470-478). Crude lysates of media-treated and human tear fluid-treated cells were collected by freeze-thawing in KBM or saline (for assays) or 10 mM Tris-HCl (pH 8.5) (for mass spectrometry). Serial fractionation of lysates was performed using centrifugal filters with cutoffs at ˜100, ˜10 and ˜3 kDa (Millipore). […] Synthetic peptides of hKRT6A were obtained from Biomatik at a purity of >95%. Antimicrobial activity against Pseudomonas aeruginosa clinical and laboratory isolates, as well as ATCC strains of Escherichia coli, Enterococcus faecalis, Serratia marcescens, Staphylococcus epidermidis, Staphylococcus aureus, Streptococcus pyogenes and Candida albicans (˜10^6 cfu/ml each) were evaluated by viable counts at 3 h. […] Statistical analysis between two groups was performed using Student's t-Test.
(§2) For antimicrobial spectrum analysis, Escherichia coli (ATCC 25922), Enterococcus faecalis (ATCC 51188), Serratia marcescens (ATCC 43862), Staphylococcus epidermidis (ATCC 12228), Staphylococcus aureus (ATCC 29213), Streptococcus pyogenes (ATCC 19615) and Candida albicans (ATCC 90028) were used. […] Starting inoculum at a concentration of ˜10^8 cfu/ml was prepared fresh by suspending bacteria in KBM media (Lonza) until OD650 reading is ˜0.1. […]

[2] = system: Staphylococcus aureus (ATCC 29213); assay: Antimicrobial spectrum analysis; type: cell-based; settings: 200 μg/mL, 3 h
Method: as §1, §2

[3] = system: Staphylococcus epidermidis (ATCC 12228); assay: Antimicrobial spectrum analysis; type: cell-based; settings: 200 μg/mL, 3 h
Method: (§3) Antimicrobial activity against Pseudomonas aeruginosa clinical and laboratory isolates, as well as ATCC strains of Escherichia coli, Enterococcus faecalis, Serratia marcescens, Staphylococcus epidermidis, Staphylococcus aureus, Streptococcus pyogenes and Candida albicans (˜10^6 cfu/ml each) were evaluated by viable counts at 3 h. Protection against bacterial invasion (quantified by gentamicin survival) and cytotoxicity (trypan blue staining) were assessed using fresh TiHCE cells inoculated with P. aeruginosa clinical isolates 6294 (invasive, ˜10^6 cfu for 2 h) or 6206 (cytotoxic, ˜10^4 cfu for 3 h). Peptide binding and membrane permeabilization by hKRT6A 19mer was determined by N-terminal TAMRA-tagged peptides (110 μM) and an impermeant SYTOX blue nucleic acid stain (5 μM; Invitrogen).
as §2

[4] = system: Enterococcus faecalis (ATCC 51188); assay: Antimicrobial spectrum analysis; type: cell-based; settings: 200 μg/mL, 3 h
Method: as §3, §2

[5] = system: Escherichia coli (ATCC 25922); assay: Antimicrobial spectrum analysis; type: cell-based; settings: 200 μg/mL, 3 h
Method: as §3, §2

[6] = system: Candida albicans (ATCC 90028); assay: Antimicrobial spectrum analysis; type: cell-based; settings: 200 μg/mL, 3 h
Method: as §3, §2

[7] = system: Serratia marcescens (ATCC 43862); assay: Antimicrobial spectrum analysis; type: cell-based; settings: 200 μg/mL, 3 h
Method: (§4) Crude lysates of media-treated and human tear fluid-treated cells were collected by freeze-thawing in KBM or saline (for assays) or 10 mM Tris-HCl (pH 8.5) (for mass spectrometry). Serial fractionation of lysates was performed using centrifugal filters with cutoffs at ˜100, ˜10 and ˜3 kDa (Millipore). […] Synthetic peptides of hKRT6A were obtained from Biomatik at a purity of >95%. Antimicrobial activity against Pseudomonas aeruginosa clinical and laboratory isolates, as well as ATCC strains of Escherichia coli, Enterococcus faecalis, Serratia marcescens, Staphylococcus epidermidis, Staphylococcus aureus, Streptococcus pyogenes and Candida albicans (˜10^6 cfu/ml each) were evaluated by viable counts at 3 h. […] Statistical analysis between two groups was performed using Student's t-Test.
(§5) Pseudomonas aeruginosa corneal clinical isolates 6294 (invasive) and 6206 (cytotoxic), cystic fibrosis clinical isolate 2192, laboratory strains PAO1 (invasive), PA14 (cytotoxic), PAC1R and its series of isogenic LPS mutants (PAC1R algC-, 557, 605, 611) were used in this study. […] Starting inoculum at a concentration of ˜10^8 cfu/ml was prepared fresh by suspending bacteria in KBM media (Lonza) until OD650 reading is ˜0.1. […]

[8] = Bactericidal effect of phosphorylated vs non-phosphorylated 19-mer (FIG. 6); type: cell-based
Text: Synthetic 19-mer KDAMP peptides were synthesized with or without tyrosine phosphorylation. The bactericidal effect of the peptides was compared.

[9] = system: P. aeruginosa strain 6206; type: cell-based; settings: Pseudomonas aeruginosa, 3 h, 200 μg/ml
Method: as §3, §2

[10] = system: P. aeruginosa clinical isolate 6294; type: cell-based; settings: Pseudomonas aeruginosa, 3 h, 200 μg/ml
Method: as §4, §5

laboratory strain PAO1 = assay: Antimicrobial activity assay (viable counts at 3 h); type: cell-based, Pseudomonas aeruginosa; settings: after 3 h, 200 μg/ml in 0.9% NaCl
Method: as §4, §5

laboratory strain PA14 = assay: as above; type: cell-based, Pseudomonas aeruginosa; settings: 200 μg/ml (FIG. 2D)
Method: as §4, §5

[11] = system: P. aeruginosa clinical isolate 6206 cytotoxicity to TiHCE cells; assay: Cytotoxicity assay (trypan blue staining) in TiHCE cells; type: cell-based, Pseudomonas aeruginosa; settings: 3 h
Method: To assess protective activity of against bacterial invasion, high-calcium treated TiHCE cells were incubated with P. aeruginosa clinical isolate 6294 (40 μl/well; 10^6 cfu/ml in crude lysates/lysate fractions versus KBM control for 3 h or 10^8 cfu/ml in peptide-containing saline versus no-peptide saline control for 2 h), followed by gentamicin treatment (200 μg/ml for 1 h). Viable intracellular bacteria was collected with 0.25% Triton-X in PBS (100 μl/well) and quantified by plating on TSA. To assay protection against bacterial cytotoxicity, P. aeruginosa clinical isolate 6206 was used instead (40 μl/well; 10^6 cfu/ml for 3 h). Dead cells were quantified by Trypan-blue (0.04%) staining.

[12] = system: human corneal epithelial cells (TiHCE); assay: Effect of peptide treatment alone on epithelial cells; type: cell-based
[13] = system: cystic fibrosis isolate 2192; settings: Pseudomonas aeruginosa, 3 h, 200 μg/ml
Method: as §4, §5

**Q.** What does the source list for “AIGGGLSSVGGGSSTIK [17mer, AIGGGLSSVGGGSSTIK]”?
**A.** susceptibility (in words) [1]: not susceptible; activity (in words) [2]: neither the 19- nor the 17mer peptide was active; activity (in words) [3]: neither the 19- nor the 17mer peptide was active; activity (in words) [4]: neither the 19- nor the 17mer peptide was active; activity (in words) [5]: neither the 19- nor the 17mer peptide was active; activity (in words) [6]: neither the 19- nor the 17mer peptide was active; activity (in words) [7]: neither the 19- nor the 17mer peptide was active

**Q.** For “RAIGGGLSSVGGGSSTIK(phospho-Y) (RAIGGGLSSVGGGSSTIK[pY]) [phosphorylated 19-mer]”, which “bactericidal activity compared with the non-phosphorylated 19-mer” value [8] is on record?
**A.** significantly increased bactericidal activity

**Q.** What does the source list for “RAIGGGLSSVGGGSSTIKY [19mer, RAIGGGLSSVGGGSSTIKY]”?
**A.** reduced viability [9]: 99.7%; reduced viability [10]: 97.5%; reduced viability (laboratory strain PAO1): 96.1%; reduced viability (laboratory strain PA14): 98.7%; protection against bacterial induced cytotoxicity compared to controls [11]: 85.1%; impact of peptide treatment alone on epithelial cells (morphology, trypan blue exclusion) [12]: not visibly impacted; reduced viability [13]: 96.9%
